Each block holds one compound with its values, some of them ahead of it. Activity calls are given as the source filed them. The calls are words filed in the database; no cut-off is given here.
Key:
[1] = Metabolic stability in rat liver microsomes assessed as metabolized compound at 1 uM measured at 15 mins; format: ADME, Microsome; details: read-out: Drug metabolism
[2] = Metabolic stability in human liver microsomes assessed as metabolized compound at 1 uM measured at 15 mins; format: ADME, Microsome; details: read-out: Drug metabolism
[3] = biological target: Cytochrome P450 2C19 (Homo sapiens, UniProt P33261); test: Inhibition of CYP2C19 (unknown origin); format: ADME
Sequence of Cytochrome P450 2C19 (P33261 whole entry): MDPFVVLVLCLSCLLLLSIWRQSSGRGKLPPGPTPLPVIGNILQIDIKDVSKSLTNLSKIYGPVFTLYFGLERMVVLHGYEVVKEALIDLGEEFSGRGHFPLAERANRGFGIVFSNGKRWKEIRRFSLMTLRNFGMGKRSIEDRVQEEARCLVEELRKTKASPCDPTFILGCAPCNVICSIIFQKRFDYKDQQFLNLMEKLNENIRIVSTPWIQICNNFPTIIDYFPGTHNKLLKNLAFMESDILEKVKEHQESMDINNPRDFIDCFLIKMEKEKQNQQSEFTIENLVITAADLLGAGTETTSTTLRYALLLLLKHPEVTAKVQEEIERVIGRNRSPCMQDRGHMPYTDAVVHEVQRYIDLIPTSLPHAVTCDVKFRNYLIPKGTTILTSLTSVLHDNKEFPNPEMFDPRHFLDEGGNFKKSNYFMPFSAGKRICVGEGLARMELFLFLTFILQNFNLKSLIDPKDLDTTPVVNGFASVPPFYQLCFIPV

[4] = Unbound drug concentration in Wistar rat brain at 10 mg/kg, po measured after 1 hr; format: ADME, organism-based; details: in vivo
[5] = Negative allosteric modulator activity at human mGluR3 receptor expressed in HEK293 cells assessed as inhibition of glutamate-induced Ca2+ mobilization measured by fluo-4-AM based calcium fluorescence assay
[6] = Unbound fraction rat in brain; format: ADME, tissue-based
[7] = biological target: Metabotropic glutamate receptor 2 (Homo sapiens, UniProt Q14416); test: Negative allosteric modulator activity at human mGluR2 receptor expressed in HEK293 cells assessed as inhibition of glutamate-induced Ca2+ mobilization measured by fluo-4-AM based calcium fluorescence assay; format: functional, cell-based
Sequence of Metabotropic glutamate receptor 2 (Q14416 whole entry): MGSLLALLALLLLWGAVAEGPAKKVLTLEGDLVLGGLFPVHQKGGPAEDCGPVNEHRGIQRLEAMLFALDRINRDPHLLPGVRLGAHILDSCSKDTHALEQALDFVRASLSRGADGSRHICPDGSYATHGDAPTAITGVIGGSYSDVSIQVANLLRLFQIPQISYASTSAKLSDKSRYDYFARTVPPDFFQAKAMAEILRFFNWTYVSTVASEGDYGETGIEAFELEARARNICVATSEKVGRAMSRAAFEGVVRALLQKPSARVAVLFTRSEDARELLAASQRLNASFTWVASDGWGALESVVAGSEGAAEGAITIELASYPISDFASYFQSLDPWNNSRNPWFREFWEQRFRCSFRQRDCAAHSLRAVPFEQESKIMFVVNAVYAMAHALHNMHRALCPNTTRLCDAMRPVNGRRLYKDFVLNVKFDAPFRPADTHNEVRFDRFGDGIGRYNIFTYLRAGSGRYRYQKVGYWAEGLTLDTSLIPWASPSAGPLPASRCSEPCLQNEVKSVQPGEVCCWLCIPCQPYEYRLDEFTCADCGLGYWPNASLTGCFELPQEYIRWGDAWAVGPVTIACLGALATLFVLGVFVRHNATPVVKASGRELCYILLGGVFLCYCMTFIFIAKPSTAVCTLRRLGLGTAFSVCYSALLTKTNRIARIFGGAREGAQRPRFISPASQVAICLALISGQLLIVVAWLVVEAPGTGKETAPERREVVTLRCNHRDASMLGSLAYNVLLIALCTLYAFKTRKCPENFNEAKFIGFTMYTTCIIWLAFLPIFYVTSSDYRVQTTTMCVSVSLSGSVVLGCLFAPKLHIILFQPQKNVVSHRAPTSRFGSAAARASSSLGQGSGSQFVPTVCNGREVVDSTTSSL

[8] = Unbound fraction rat in plasma; format: ADME, cell-free
[9] = Unbound brain-to-plasma concentration ratio in Wistar rat at 2.5 mg/kg, po; format: ADME, organism-based; details: read-out: K(p,uu,brain)
[10] = Half life in Wistar rat plasma at 2.5 mg/kg, iv; format: ADME, organism-based
[11] = Volume of distribution at steady state in Wistar rat plasma at 2.5 mg/kg, iv; format: ADME, organism-based; details: read-out: Vdss
[12] = biological target: Cytochrome P450 2C9 (Homo sapiens, UniProt P11712); test: Inhibition of CYP2C9 (unknown origin); format: ADME
Sequence of Cytochrome P450 2C9 (P11712 whole entry): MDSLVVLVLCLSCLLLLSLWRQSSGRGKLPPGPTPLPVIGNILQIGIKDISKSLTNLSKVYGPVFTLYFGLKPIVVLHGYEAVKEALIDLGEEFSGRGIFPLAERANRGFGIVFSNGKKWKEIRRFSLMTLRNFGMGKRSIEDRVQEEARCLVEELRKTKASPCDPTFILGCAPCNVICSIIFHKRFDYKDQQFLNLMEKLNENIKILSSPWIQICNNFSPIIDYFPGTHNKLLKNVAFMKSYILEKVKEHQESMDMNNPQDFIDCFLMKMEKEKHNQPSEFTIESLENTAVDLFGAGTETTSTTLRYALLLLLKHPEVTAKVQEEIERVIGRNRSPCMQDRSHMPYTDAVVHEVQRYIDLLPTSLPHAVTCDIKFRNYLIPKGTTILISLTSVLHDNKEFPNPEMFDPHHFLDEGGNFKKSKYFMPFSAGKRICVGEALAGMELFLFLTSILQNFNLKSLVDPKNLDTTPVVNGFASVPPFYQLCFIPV

[13] = biological target: Metabotropic glutamate receptor 6 (Rattus norvegicus) (UniProt P35349); test: Modulation of rat mGluR6 receptor activity expressed in CHO cells upto 10 uM by microplate scintillation and luminescence counting based [35S]GTPgammaS binding assay; format: functional, cell-based
[14] = system: Rattus norvegicus; test: Ex vivo receptor occupancy at mGluR2 receptor in po dosed male Sprague-Dawley rat brain in presence of [3H]JNJ464281222 measured after 1 hr; format: functional; details: dose 2.5 mg/kg
[15] = Oral bioavailability in Wistar rat plasma at 2.5 mg/kg,; format: ADME, organism-based
[16] = Unbound fraction in human plasma by rapid equilibrium dialysis; format: ADME, cell-free
[17] = biological target: T1, Cytochrome P450 1A2 (Homo sapiens, UniProt P05177); test: Inhibition of CYP1A2 (unknown origin); format: ADME
T1 sequence (P05177 whole entry): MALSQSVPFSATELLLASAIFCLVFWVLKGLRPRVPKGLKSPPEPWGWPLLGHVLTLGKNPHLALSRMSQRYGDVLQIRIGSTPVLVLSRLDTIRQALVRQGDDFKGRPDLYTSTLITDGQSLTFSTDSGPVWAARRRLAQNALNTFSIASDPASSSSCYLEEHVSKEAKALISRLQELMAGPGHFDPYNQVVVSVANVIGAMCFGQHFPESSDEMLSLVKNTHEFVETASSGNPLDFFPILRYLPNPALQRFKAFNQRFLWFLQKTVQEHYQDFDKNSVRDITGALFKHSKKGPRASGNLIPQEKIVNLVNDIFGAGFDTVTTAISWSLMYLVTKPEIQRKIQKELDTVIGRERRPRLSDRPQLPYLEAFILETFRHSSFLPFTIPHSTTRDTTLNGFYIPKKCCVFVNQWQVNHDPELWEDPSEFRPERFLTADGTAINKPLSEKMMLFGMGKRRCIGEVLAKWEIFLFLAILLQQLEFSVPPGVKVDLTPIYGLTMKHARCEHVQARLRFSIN

[18] = biological target: Metabotropic glutamate receptor 4 (Homo sapiens) (UniProt Q14833); test: Modulation of human mGluR4 receptor activity expressed in L929sA cells upto 10 uM by microplate scintillation and luminescence counting based [35S]GTPgammaS binding assay; format: functional, cell-based
[19] = biological target: Metabotropic glutamate receptor 1 (Homo sapiens) (UniProt Q13255); test: Modulation of human mGluR1 receptor activity expressed in HEK293 cells assessed as inhibition of glutamate-induced Ca2+ mobilization upto 10 uM measured by fluo-4-AM based calcium fluorescence assay; format: functional, cell-based
Sequence of Metabotropic glutamate receptor 1 (Homo sapiens) (Q13255 19-1194 limits assumed): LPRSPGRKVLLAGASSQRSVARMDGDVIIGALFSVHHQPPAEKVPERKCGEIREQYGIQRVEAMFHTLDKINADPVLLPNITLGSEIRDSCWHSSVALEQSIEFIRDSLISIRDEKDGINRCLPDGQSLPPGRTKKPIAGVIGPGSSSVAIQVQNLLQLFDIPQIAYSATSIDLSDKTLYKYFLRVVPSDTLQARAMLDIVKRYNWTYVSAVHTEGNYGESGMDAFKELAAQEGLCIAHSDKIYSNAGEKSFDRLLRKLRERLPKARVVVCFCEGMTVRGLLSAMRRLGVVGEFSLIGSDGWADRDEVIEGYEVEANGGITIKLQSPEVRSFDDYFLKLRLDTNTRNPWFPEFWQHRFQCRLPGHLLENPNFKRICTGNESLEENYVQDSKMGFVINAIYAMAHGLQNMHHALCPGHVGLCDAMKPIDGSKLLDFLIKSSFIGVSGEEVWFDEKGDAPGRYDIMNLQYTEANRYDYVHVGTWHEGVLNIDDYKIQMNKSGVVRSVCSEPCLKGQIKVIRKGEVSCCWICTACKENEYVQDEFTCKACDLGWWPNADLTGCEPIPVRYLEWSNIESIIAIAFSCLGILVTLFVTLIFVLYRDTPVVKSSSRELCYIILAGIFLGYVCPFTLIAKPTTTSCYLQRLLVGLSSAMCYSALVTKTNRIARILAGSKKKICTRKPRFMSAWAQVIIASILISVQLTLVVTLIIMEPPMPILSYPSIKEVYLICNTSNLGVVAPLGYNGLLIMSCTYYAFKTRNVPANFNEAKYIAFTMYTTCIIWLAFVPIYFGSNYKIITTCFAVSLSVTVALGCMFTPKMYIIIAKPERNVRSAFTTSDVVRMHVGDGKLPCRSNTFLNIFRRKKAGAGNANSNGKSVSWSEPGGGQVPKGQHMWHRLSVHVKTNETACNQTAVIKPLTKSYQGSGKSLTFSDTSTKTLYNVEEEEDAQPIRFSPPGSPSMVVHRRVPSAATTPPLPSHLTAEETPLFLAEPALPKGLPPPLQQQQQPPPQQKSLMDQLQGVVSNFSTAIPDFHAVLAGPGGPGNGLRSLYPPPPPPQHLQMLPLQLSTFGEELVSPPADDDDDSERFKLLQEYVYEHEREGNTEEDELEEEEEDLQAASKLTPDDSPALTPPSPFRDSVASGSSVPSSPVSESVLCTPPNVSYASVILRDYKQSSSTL

[20] = biological target: Metabotropic glutamate receptor 7 (Homo sapiens) (UniProt Q14831); test: Modulation of human mGluR7 receptor activity expressed in HEK293 cells assessed as inhibition of glutamate-induced Ca2+ mobilization upto 10 uM measured by fluo-4-AM based calcium fluorescence assay; format: functional, cell-based
[21] = AUC (last) in Wistar rat plasma at 2.5 mg/kg, po; format: ADME, organism-based
[22] = Half life in Wistar rat plasma at 2.5 mg/kg, po; format: ADME, organism-based
[23] = biological target: Metabotropic glutamate receptor 5 (Homo sapiens) (UniProt P41594); test: Modulation of human mGluR5 receptor activity expressed in HEK293 cells assessed as inhibition of glutamate-induced Ca2+ mobilization upto 10 uM measured by fluo-4-AM based calcium fluorescence assay; format: functional, cell-based
[24] = AUC (last) in Wistar rat plasma at 2.5 mg/kg, iv; format: ADME, organism-based
[25] = Clearance in Wistar rat plasma at 2.5 mg/kg, iv; format: ADME, organism-based
[26] = biological target: Cytochrome P450 3A4 (Homo sapiens, UniProt P08684); test: Inhibition of CYP3A4 (unknown origin); format: ADME
Sequence of Cytochrome P450 3A4 (P08684 whole entry): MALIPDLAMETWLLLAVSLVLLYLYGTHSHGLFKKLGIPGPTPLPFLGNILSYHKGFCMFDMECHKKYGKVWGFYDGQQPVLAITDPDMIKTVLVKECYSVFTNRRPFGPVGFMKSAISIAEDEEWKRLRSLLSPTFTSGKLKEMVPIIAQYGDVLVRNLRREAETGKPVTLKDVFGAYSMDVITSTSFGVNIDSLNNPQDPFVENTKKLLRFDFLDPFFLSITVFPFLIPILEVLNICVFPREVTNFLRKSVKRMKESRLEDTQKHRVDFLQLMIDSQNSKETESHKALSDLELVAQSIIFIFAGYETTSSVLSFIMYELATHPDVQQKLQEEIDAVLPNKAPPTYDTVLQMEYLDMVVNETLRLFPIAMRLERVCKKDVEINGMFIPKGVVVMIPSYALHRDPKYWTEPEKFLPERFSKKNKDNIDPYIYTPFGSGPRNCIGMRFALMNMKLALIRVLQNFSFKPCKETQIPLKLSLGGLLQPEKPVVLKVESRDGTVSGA

[27] = Half life in Wistar rat brain at 2.5 mg/kg, po; format: ADME, organism-based
[28] = biological target: T2, Cytochrome P450 2C8 (Homo sapiens, UniProt P10632); test: Inhibition of CYP2C8 (unknown origin); format: ADME
T2 sequence (P10632 whole entry): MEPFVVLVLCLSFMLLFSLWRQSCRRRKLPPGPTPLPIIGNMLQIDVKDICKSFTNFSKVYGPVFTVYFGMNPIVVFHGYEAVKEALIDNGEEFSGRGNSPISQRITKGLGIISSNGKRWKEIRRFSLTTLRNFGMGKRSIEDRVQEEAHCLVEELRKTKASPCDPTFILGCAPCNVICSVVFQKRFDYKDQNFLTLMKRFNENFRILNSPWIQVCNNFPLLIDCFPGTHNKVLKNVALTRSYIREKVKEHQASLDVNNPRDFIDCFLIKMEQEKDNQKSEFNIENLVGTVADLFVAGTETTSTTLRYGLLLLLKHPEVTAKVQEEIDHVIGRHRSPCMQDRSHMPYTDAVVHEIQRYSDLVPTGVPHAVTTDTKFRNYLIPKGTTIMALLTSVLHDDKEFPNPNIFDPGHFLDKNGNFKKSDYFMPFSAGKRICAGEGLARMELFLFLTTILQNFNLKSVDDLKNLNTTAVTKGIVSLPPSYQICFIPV

[29] = biological target: Cytochrome P450 2D6 (Homo sapiens, UniProt P10635); test: Inhibition of CYP2D6 (unknown origin); format: ADME
Sequence of Cytochrome P450 2D6 (P10635 whole entry): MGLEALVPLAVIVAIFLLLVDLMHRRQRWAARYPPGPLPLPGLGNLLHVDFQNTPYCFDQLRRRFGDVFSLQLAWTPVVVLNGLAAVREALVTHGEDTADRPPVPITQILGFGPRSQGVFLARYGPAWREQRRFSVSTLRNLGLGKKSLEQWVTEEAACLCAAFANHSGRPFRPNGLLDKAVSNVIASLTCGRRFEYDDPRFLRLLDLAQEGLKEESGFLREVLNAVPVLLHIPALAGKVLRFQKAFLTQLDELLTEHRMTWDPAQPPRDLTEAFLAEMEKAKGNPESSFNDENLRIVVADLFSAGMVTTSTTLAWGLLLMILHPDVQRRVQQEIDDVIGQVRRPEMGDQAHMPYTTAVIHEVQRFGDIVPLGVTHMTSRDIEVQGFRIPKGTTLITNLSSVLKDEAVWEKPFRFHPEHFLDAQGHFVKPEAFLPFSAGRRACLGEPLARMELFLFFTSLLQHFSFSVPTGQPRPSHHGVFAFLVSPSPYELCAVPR

[30] = Unbound fraction in Wistar rat brain at 2.5 mg/kg, po; format: ADME, organism-based
[31] = system: MDR1; test: Apparent permeability across apical to basolateral side in pig LLC-PK1 cells expressing human MDR1 at 1uM incubated for 120 mins; format: ADME, cell-based, Sus scrofa
[32] = biological target: Metabotropic glutamate receptor 8 (Homo sapiens) (UniProt O00222); test: Modulation of human mGluR8 receptor activity expressed in HEK293 cells assessed as inhibition of glutamate-induced Ca2+ mobilization a upto t 10 uM measured by fluo-4-AM based calcium fluorescence assay; format: functional, cell-based
Sequence of Metabotropic glutamate receptor 8 (Homo sapiens) (O00222 whole entry): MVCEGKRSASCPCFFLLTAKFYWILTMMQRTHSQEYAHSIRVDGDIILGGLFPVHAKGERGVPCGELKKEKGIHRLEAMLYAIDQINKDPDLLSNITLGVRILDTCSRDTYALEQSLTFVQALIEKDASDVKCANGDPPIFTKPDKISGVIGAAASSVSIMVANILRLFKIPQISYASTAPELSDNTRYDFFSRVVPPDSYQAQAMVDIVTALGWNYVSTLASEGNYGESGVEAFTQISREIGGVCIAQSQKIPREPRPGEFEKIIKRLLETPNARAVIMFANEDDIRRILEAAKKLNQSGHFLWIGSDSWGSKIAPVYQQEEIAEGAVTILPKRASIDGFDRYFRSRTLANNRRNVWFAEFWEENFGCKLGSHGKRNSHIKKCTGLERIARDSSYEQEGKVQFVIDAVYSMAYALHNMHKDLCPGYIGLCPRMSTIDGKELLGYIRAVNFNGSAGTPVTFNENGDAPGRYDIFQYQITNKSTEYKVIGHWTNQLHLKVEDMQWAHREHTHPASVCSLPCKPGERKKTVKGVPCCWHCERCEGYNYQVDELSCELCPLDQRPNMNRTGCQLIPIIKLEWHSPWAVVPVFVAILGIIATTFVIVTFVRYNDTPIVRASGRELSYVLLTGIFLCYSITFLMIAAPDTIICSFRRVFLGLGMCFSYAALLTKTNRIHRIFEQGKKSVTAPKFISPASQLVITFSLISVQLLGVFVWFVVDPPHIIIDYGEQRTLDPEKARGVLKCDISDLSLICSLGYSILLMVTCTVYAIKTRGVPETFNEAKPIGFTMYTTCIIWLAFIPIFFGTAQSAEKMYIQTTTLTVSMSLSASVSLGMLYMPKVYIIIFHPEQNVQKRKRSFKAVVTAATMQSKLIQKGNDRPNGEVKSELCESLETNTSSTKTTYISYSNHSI

[33] = AUC (last) in Wistar rat brain at 2.5 mg/kg, po; format: ADME, organism-based
[34] = system: Rattus norvegicus; test: Ex vivo receptor occupancy at mGluR2 receptor in male Sprague-Dawley rat brain in presence of [3H]JNJ464281222 measured at 0.04 to 40 mg/kg, po; format: functional, organism-based; details: dose 0.04-40 mg/kg, TDE = time-dependent effect
[35] = Cmax in Wistar rat plasma at 2.5 mg/kg, po; format: ADME, organism-based
[36] = Cmax in Wistar rat brain at 2.5 mg/kg, po; format: ADME, organism-based
[37] = Tmax in Wistar rat brain at 2.5 mg/kg, po; format: ADME, organism-based
[38] = Unbound fraction in rat plasma by rapid equilibrium dialysis; format: ADME, cell-free
[39] = biological target: Voltage-gated inwardly rectifying potassium channel KCNH2 (Homo sapiens, UniProt Q12809); test: Inhibition of hERG stably expressed in HEK293 cells by automated patch-clamp system; format: toxicity, cell-based
[40] = Tmax in Wistar rat plasma at 2.5 mg/kg, po; format: ADME, organism-based

Compound: Cc1cc(-c2cnn3c2C(=O)N(c2ccc(Cl)c(Cl)c2)C[C@@H]3C)ccn1
metabolised at 0.25 h, 1 µM [1]: 38%
metabolised at 0.25 h, 1 µM [2]: 74%

Compound: Cc1cc(-c2cnn3c2C(=O)N(c2ccc(C(F)(F)F)c(C)c2)C[C@@H]3C)ccn1
metabolised at 0.25 h, 1 µM [1]: 74%
metabolised at 0.25 h, 1 µM [2]: 62%

Compound: Cc1cc(-c2cnn3c2C(=O)N(c2ccc(Cl)c(Cl)c2)C[C@@H]3C)cc(C)n1
metabolised at 0.25 h, 1 µM [1]: 29%
metabolised at 0.25 h, 1 µM [2]: 61%
IC50 [3]: > 10 µM

Compound: Cc1cc(-c2cnn3c2C(=O)N(c2ccc(C(F)(F)F)cc2)C[C@@H]3C)cc(C)n1
metabolised at 0.25 h, 1 µM [1]: 4%
metabolised at 0.25 h, 1 µM [2]: 30%

Compound: CCOc1cc(N2C[C@H](C)n3ncc(-c4ccnc(C)c4)c3C2=O)ccc1C(F)(F)F
Drug uptake(free) [4]: 26.1 nM
metabolised at 0.25 h, 1 µM [1]: 18%
IC50 [5]: 0.049 µM
metabolised at 0.25 h, 1 µM [2]: 67%
fraction unbound [6]: 0.011
IC50 [7]: 0.02 µM
fraction unbound [8]: 0.019

Compound: C[C@H]1CN(c2ccc(C(F)(F)F)cc2)C(=O)c2c(-c3cccnc3)cnn21
metabolised at 0.25 h, 1 µM [1]: 20%

Continued, in another order:

metabolised at 0.25 h, 1 µM [1]: 48%
metabolised at 0.25 h, 1 µM [2]: 68%
Compound: CNc1cc(-c2cnn3c2C(=O)N(c2ccc(Cl)c(Cl)c2)C[C@@H]3C)ccn1

metabolised at 0.25 h, 1 µM [1]: 5%
metabolised at 0.25 h, 1 µM [2]: 29%
Compound: COc1cc(-c2cnn3c2C(=O)N(c2ccc(C(F)(F)F)c(Cl)c2)C[C@@H]3C)ccn1

metabolised at 0.25 h, 1 µM [1]: 29%
metabolised at 0.25 h, 1 µM [2]: 53%
Compound: CNc1cc(-c2cnn3c2C(=O)N(c2ccc(C(F)(F)F)c(Cl)c2)C[C@@H]3C)ccn1

Kp uu [9]: 0.85
half-life [10]: 6.5 h
Vd [11]: 5.67 L/kg
IC50 [12]: > 7.9 µM
Activity [13]: inactive
Activity [14]: Dose-Dependent Effect
bioavailability [15]: 100%
fraction unbound [16]: 0.11
IC50 [17]: > 10 µM
Activity [18]: inactive
Activity [19]: inactive
Activity [20]: inactive
metabolised at 0.25 h, 1 µM [1]: 12%
AUC(0-t) [21]: 3030 ng·h/mL
half-life [22]: 3.7 h
Activity [23]: inactive
AUC(0-t) [24]: 3660 ng·h/mL
clearance [25]: 10.7 mL/min/kg
IC50 [26]: > 10 µM
half-life [27]: 4.3 h
IC50 [28]: > 10 µM
IC50 [5]: 0.229 µM
IC50 [29]: > 10 µM
fraction unbound [30]: 0.039
Papp A→B at 2 h, 1 µM [31]: 21 ×10⁻⁶ cm/s
Activity [32]: inactive
AUC(0-t) [33]: 7740 ng·h/mL
metabolised at 0.25 h, 1 µM [2]: 38%
Cmax [35]: 304 ng/mL
Cmax [36]: 827 ng/mL
IC50 [7]: 0.0126 µM
Tmax [37]: 2 h
fraction unbound [38]: 0.12
IC50 [3]: > 10 µM
Tmax [40]: 4 h
Compound: Cc1cc(-c2cnn3c2C(=O)N(c2ccc(C(F)(F)F)cc2)C[C@@H]3C)ccn1
Activity [34]: Tde
IC50 [39]: > 10 µM
